Molecules are shown by their SMILES. Structures can show the parent of a compound that is named as a salt.

The amount remaining is the share of the starting amount still present when the sample was taken.

Data set [1] can be described thus: Plasma protein binding (ultrafiltration), across all species. The following applies: rat, mouse, dog, human, 37 °C, read-out: plasma protein binding, range across all species. The class given is in vitro ADME. The protocol:
Plasma ultrafiltration was used for determination of free and protein bound fractions of EC2629 and EC2491. Samples were extracted and analyzed using fit-for-purpose bioanalytical methods. Briefly, 500 nM EC2629 or EC2491 was spiked into plasma maintained at 37 °C prior to plasma ultrafiltration. Plasma spiked with 500 nM EC2629 or EC2491 was allowed to equilibrate at 37 °C for 30 min prior to processing. Next, 50 μL of plasma was transferred to a clean 1.2 mL plate stored at 2–8 °C for further processing. The remaining plasma sample volumes were transferred to 30 Kd MWCO PES filter to generate plasma ultrafiltrate by centrifugation at 10,000×g for 20 min. After which, 50 μL of each plasma ultrafiltrate was transferred to separate wells in a clean 1.2 mL plate. To all spiked plasma samples, 50 μL of blank plasma ultrafiltrate was added. 50 μL of blank plasma was added to all experimental ultrafiltrate samples. These blank matrix additions normalized the matrix effects for protein binding determination. Samples were then extracted using protein precipitation with a 3:1 ratio of acetonitrile after addition of internal standard. The supernatant transferred to a new plate, evaporated, and reconstituted prior to LC–MS/MS analysis.

Data set [2] in a line: Plasma stability, rat. The class given is in vitro ADME. The settings on record: 37 °C. The protocol: (§1) Whole blood and plasma stability were determined for EC2629 and EC2491 at a concentration of 500 nM. Samples were extracted and analyzed using fit-for-purpose bioanalytical methods. EC2629 or EC2491 was spiked into 1 mL whole blood or plasma maintained at 37 °C for 30 min prior to use . Fifty µl aliquots were then removed at defined timepoints and stored in a 1.2 mL extraction plate prior to analysis. Samples were then extracted using protein precipitation with a 3:1 ratio of acetonitrile after addition of internal standard. The supernatant was then transferred to a new plate, evaporated, and reconstituted prior to LC–MS/MS analysis.

Data set [3] is described as follows: Plasma stability, mouse. The class given is in vitro ADME. The settings on record: 37 °C. The protocol: as §1
Data set [4] is described as follows: Plasma stability, dog. The class given is in vitro ADME. The settings on record: 37 °C. The protocol:
as §1

Data set [5] can be described thus: Whole blood stability, rat. It counts as in vitro ADME. The settings on record: 37 °C, after two hours, read-out: percent remaining in whole blood. Here is the method: as §1
A short description of data set [6]: Whole blood stability, mouse. The settings on record: 37 °C, after two hours, mouse whole blood, read-out: percent remaining in whole blood. The class given is in vitro ADME. The protocol:
as §1

Data set [7] can be described thus: Whole blood stability, dog. The class given is in vitro ADME. The following applies: 37 °C, after two hours, read-out: percent remaining in whole blood. The protocol:
as §1

Data set [8] is described as follows: Whole blood stability, human. It counts as in vitro ADME. The settings on record: 37 °C, after two hours, human whole blood, read-out: percent remaining in whole blood. The protocol:
as §1

A short description of data set [9]: Liver microsome stability assay, rat. The class given is in vitro ADME. The settings on record: 1 µM; for percent of compound remaining: male rat liver microsomes, 37 °C. Here is the method: (§2) Appropriate microsomes (XenoTech) were incubated with EC2491 in the presence or absence of NADPH regenerating system (Corning Gentest) at 37 °C. Incubations with NADPH contained 352.5 μL DI water, 100 μL 0.5 M potassium phosphate buffer, pH 7.4, 25 μL NADPH solution A, […], and 12.5 μL of the appropriate microsomes. Incubations without NADPH contained 382.5 μL water, 100 μL 0.5 M potassium phosphate buffer, pH 7.4, and 12.5 μL of the appropriate microsomes. 50 μL aliquots were withdrawn at various time points and mixed with internal standard, EC3044 (Endocyte) in acetonitrile. After mixing and evaporation of the acetonitrile, the samples were reconstituted. The samples were mixed, centrifuged, and 100 μL of supernatant was transferred to a new plate prior to LC–MS/MS analysis.
For orientation: Liver microsomes are vesicles of endoplasmic reticulum, rich in cytochrome P450 enzymes.

Data set [10] is described as follows: Liver microsome stability assay, dog. The class given is in vitro ADME. The settings on record: 1 µM; for percent of compound remaining: 37 °C. Here is the method: as §2
The nature of data set [11]: Liver microsome stability assay, human. The following applies: 1 µM, human liver microsomes, 37 °C. It counts as in vitro ADME. The protocol: as §2
Data set [12] is described as follows: Stability in phosphate buffer pH 7.4. The settings on record: 1 µM, 0.1 M phosphate buffer, pH 7.4, up to 1 h at 37 °C. The class given is physicochemical. Here is the method:
The in vitro metabolic stability of EC2491 was evaluated using rat, dog, and human liver microsomes in the presence and absence of NADPH. Stability of EC2491 was also evaluated in phosphate buffer, pH 7.4, under the incubation conditions (see Fig. 7a). EC2491 (1 µM) is stable in 0.1 M phosphate buffer, pH 7.4 up to 1 h at 37 °C. When EC2491 (1 µM) is incubated with male rat, dog, and human microsomes in the absence of NADPH, there is some depletion of the compound such that approximately 63%, 56%, and 49% of the compound remains after 1 h in rat, dog, and human microsomes, respectively. […] In the presence of NADPH male rat liver microsomes metabolize EC2491 rapidly such that only 2% of the compound remains in the incubation mixture at the end of 1 h. Male dog and human liver microsomes metabolize EC2491 somewhat slowly (22% and 18% remaining at the end of 1 h respectively). This is indicative of CYP-mediated metabolism of EC2491.

Data set [13] concerns KB-CR tumors. Nature of the data set: Cisplatin-resistant KB-CR tumor xenograft in nu/nu mice. It counts as in vivo. The protocol: (§3) Four- to eight-week-old female nu/nu mice and rats (Harlan Sprague Dawley, Inc.), were maintained on a standard 12-h light–dark cycle and fed ad libitum with a low-folate chow (Harlan Teklad diet #TD.01013, Madison, WI) for the duration of dosing and 1 week post dosing schedule. Mice and rats were then switched to Teklad Global 18% Rodent diet (Harlan Teklad diet #2018S) during the monitoring phase of the study. Parental KB, KB-CR2000 or KB-PR10 cells (1 × 10^6/100 µL per nu/nu mouse and 5 × 10^6/200 µL per nu/nu rat) were injected into the subcutis of the dorsal medial area. Mice were divided into groups of 5 and rats in groups of 3–4, and freshly prepared test articles were injected through the lateral tail vein under sterile conditions in a volume of 200 μL/20 g of PBS. In mice, intravenous treatments typically initiated on day 7 PTI when KB tumors were approximately 111–168 mm^3 in volume, on day 5 PTI when the KB-PR tumors were about 205–243 mm^3, and on day 6 PTI when the KB-CR tumors were around 98 to 168 mm^3. Treatments in rats were started on day 10 PTI when KB tumors were approximately 412–704 mm^3 in volume.
(§4) Animals in the control groups received no treatment. Growth of each subcutaneous tumor was followed by measuring the tumor 3 times per week during treatment and twice per week thereafter, until a maximum volume of 1,500 mm^3 for mice and 15,000 mm^3 for rats were reached. Tumors were measured in two perpendicular directions using Vernier calipers, and their volumes were calculated as V = 0.5 × L × W^2, where L = measurement of longest axis in mm and W = measurement of axis perpendicular to L in mm[16]. As a general measure of gross toxicity, changes in body weights were determined on the same schedule as tumor volume measurements. Survival of animals was monitored daily. Animals that were moribund (or unable to reach food or water) were euthanized by CO2 asphyxiation. Individual tumor response endpoints were reported in terms of tumor volume change. A partial response (PR) was defined as volume regression > 50% but with measurable tumor (> 2 mm^3) remaining at all times. Complete response (CR) was defined as a disappearance of measurable tumor mass (< 2 mm^3) at some point within 90 days after tumor implantation. Cures were defined as CRs without tumor regrowth within the 90-day study time frame.

In data set [14] the test system is ST502 patient derived xenograft. Kind of data set: ST502 triple negative breast PDX model. It counts as in vivo, nu/nu mice. Here is the method:
(§5) Patient derived xenograft (PDX) studies were performed at South Texas Accelerated Research Therapeutics (START, San Antonio, TX). Patient tumor tissues were obtained with patients’ informed consent and PDX models were generated after multiple generations in mice. […] Tumor fragments were harvested from host animals and implanted into 6–12 weeks old female athymic nude mice (Crl:NU(NCr)-Foxn1nu). Intravenous treatments were initiated when ST502 (triple negative breast) tumors were approximately 112–333 mm^3, ST738 (triple negative breast) tumors were 112–300 mm^3, ST040 (endometrial) tumors were 78–333 mm^3, and ST070 (ovarian) tumors were 131–266 mm^3 in volume.
as §4

The subject of data set [15] is ST738 patient derived xenograft. Nature of the data set: ST738 triple negative breast PDX model. The following applies: Eribulin mesylate 1 mg/kg SIW x 2 weeks, n=7. The class given is in vivo, nu/nu mice. Here is the method:
as §5, §4

The test system of data set [16] is KB-PR tumors. Nature of the data set: Paclitaxel-resistant KB-PR tumor xenograft in nu/nu mice. The class given is in vivo. The protocol: as §3, §4
The subject of data set [17] is ST040 patient derived xenograft. Nature of the data set: ST040 endometrial PDX model. The class given is in vivo, nu/nu mice. Here is the method:
as §5, §4

Data set [18] concerns ST070 patient derived xenograft. Nature of the data set: ST070 ovarian PDX model. The class given is in vivo, nu/nu mice. The protocol:
as §5, §4

Setting [19] is: Cisplatin 3 mg/kg BIW x 2 weeks, n=5.
The mark [20] stands for this setting: Eribulin mesylate 1 mg/kg SIW x 2 weeks, n=7.
Setting [21] is: Paclitaxel 20 mg/kg TIW x 2 weeks, n=5.
Setting [22] is: Paclitaxel 15 mg/kg SIW x 2 weeks, n=3.
The mark [23] stands for this setting: paclitaxel 15 mg/kg SIW x 2 weeks.
[24] abbreviates: Paclitaxel 15 mg/kg SIW x 2 weeks, n=7.

For `C=C1C[C@H]2C=Nc3cc(OCCCCCOc4cc5c(cc4OC)C(=O)N4CC(=C)C[C@H]4C=N5)c(OC)cc3C(=O)N2C1` [EC2491], the fraction unbound at 30 min, 500 nM in data set [1] is 0.02 to 0.05. Moreover, the “time stable in plasma” value in data set [2], in data set [3] and in data set [4] was “greater than 24 h” in each case. The share remaining at 2 h, 500 nM came to 95.6% in [5], 87.3% in [6], 63.1% in [7] and 80.6% in data set [8]. Further, the “metabolism in CYP3A induced microsomes versus corn-oil treated controls” value is “more rapid metabolism” in data set [9] (dexamethasone-treated male rat liver microsomes, + NADPH) and “more rapid metabolism” in [10] (rifampin-treated dog liver microsomes, + NADPH). For the same compound, the “percent of compound remaining” value in data set [9] (absence of NADPH, after 1 h) is “approximately 63%”; in data set [9] (presence of NADPH, end of 1 h), 2%; in data set [10] (dog liver microsomes, absence of NADPH, after 1 h), roughly 56%; in data set [10] (male dog liver microsomes, presence of NADPH, end of 1 h) it was 22%; in data set [11] (absence of NADPH, after 1 h), roughly 49%; in data set [11] (presence of NADPH, end of 1 h) it was 18%. In [12], the stability in buffer result is “stable”.

For the compound `N.N.[Cl][Pt][Cl]` [cisplatin], in data set [13] (setting [19]), the “CR (complete response), number of animals” value (“CR (complete response)” for short) is recorded as 0; the “Cures, number of animals” value was found to be 0; the “PR (partial response), number of animals” value was determined as 0. Besides, the antitumor effect result in data set [13] (cisplatin 3 mg/kg BIW x 2 weeks) is “very little effect”.

For `C=C1C[C@@H]2CC[C@@]34C[C@H]5O[C@H]6[C@@H](O3)[C@H]3O[C@H](CC[C@@H]3O[C@H]6[C@H]5O4)CC(=O)C[C@@H]3[C@@H](OC)[C@@H](C[C@H](O)CN)O[C@H]3C[C@H]3O[C@@H](CC[C@@H]1O2)C[C@@H](C)C3=C` [eribulin mesylate], the “CR (complete response)” value in data set [14] (setting [20]) and in data set [15] was 0 in each case. Further, the “Cures, number of animals” value in [14] (setting [20]) and in data set [15] was 0 in each case. Further, the “PR (partial response), number of animals” value in [14] (setting [20]) was “one”; in [14] (Eribulin mesylate 1 mg/kg SIW x 2 weeks, n=7, listed as Eribulin mesylate) it was 1; in data set [15], “two”; in [15] (listed as Eribulin mesylate), 2. Further, in data set [14] (eribulin mesylate 1 mg/kg SIW x 2 weeks), the antitumor activity entry is on record as “did not display significant anti-tumor activity”.

Regarding `CC(=O)O[C@H]1C(=O)[C@@]2(C)[C@H]([C@H](OC(=O)c3ccccc3)[C@]3(O)C[C@H](OC(=O)[C@H](O)[C@@H](NC(=O)c4ccccc4)c4ccccc4)C(C)=C1C3(C)C)[C@]1(OC(C)=O)CO[C@@H]1C[C@@H]2O` [paclitaxel], the “CR (complete response)” value in data set [16] (setting [21]), in data set [17] (setting [22]) and in data set [18] (setting [24]) was 0 in each case. The “Cures, number of animals” value in data set [16] (setting [21]), in data set [17] (setting [22]) and in [18] (setting [24]) was 0 each time. For the same compound, the “PR (partial response), number of animals” value in data set [16] (setting [21]), in data set [17] (setting [22]) and in data set [18] (setting [24]) was 0 in each case. In addition, the antitumor effect result in data set [16] (paclitaxel 20 mg/kg TIW x 2 weeks) was “very little effect”; in data set [17] (setting [23]) it was “modest tumor growth delay”; in data set [18] (setting [23]), “essentially inactive”.

These data come from paper PMC7391724 (Scientific Reports, 2020).
